Laboratory results published in patent US8895032B2, “Dendritic nano-antioxidants” (Central Michigan University, priority 2009, dated 2014).
pIC50: −log10 of the molar value. Where “and” joins values, the source holds several entries; their conditions need not be identical. Equal entries are not always repeated.

Columns and labels:
[1] = beta-carotene-linoleate assay; assay type: biochemical; details: 50° C., 180 min, 470 nm
Description: The ability of the dendritic antioxidants 1, 2, and 3 to protect linoleic acid against free radical damage was examined by the beta-carotene-linoleate model (Jayaprakasha, G. K., et al. Food Chem. 2001, 73, 285, incorporated herein by reference in its entirety). In the absence of an antioxidant, hydroperoxides formed from linoleic acid oxidation bleach the highly unsaturated beta-carotene by a free-radical-mediated phenomenon. The bleaching of the reddish-orange color of beta-carotene was monitored at 470 nm in the presence of various concentrations of antioxidant. The % absorbance (corrected for control without antioxidant) was determined at each antioxidant concentration after incubation at 50° C. for 180 min. The % A470 nm values were determined as follows: % A470 nm=[(At(180 min)/At(0 min))×100]−[(Ac(180 min)/Ac(0 min))×100], wherein At(180 min)=absorbance at 470 nm of antioxidant sample incubated at 50° C. for 180 min, At(0 min)=absorbance at 470 nm of antioxidant sample incubated at 50° C. for 0 min, Ac(180 min)=absorbance at 470 nm of control sample (without antioxidant) incubated at 50° C. for 180 min, and Ac(0 min)=absorbance at 470 nm of control sample (without antioxidant) incubated at 50° C. for 0 min. […] In FIG. 24, protection of linoleic acid from oxidation by various antioxidants is shown for compound 1 (□), compounds 2 and 3 (•), quercetin (x), and Trolox (Δ).

pBR 322 DNA with Cu2+ = assay: Pro-oxidant effect: oxidation of DNA with copper (II) ion; details: 10 μM Cu2+, 37° C., 1 h
Experimental: The pro-oxidant effect of compounds 1, 2, and 3 was examined by oxidation of DNA with copper (II) ion. pBR 322 was incubated with 10 μM Cu^2+ at 37° C. for 1 h in the presence of compound 1, 2, or 3 (final concentrations between 0.35 and 45 μM). […] Lane 1 is native DNA, and lanes 2-10 are Cu^2+-oxidized DNA with 0, 45, 23, 11, 5, 3, 1.5, 0.7, and 0.35 μM antioxidant, respectively.
This was performed by co-incubation of DNA (pBR 322), copper (II) ion and antioxidant. […] This ultimately forms DNA-Cu(I)OOH, initiating a free radical cascade by which DNA damage occurs. pBR 322 was incubated with 10 μM Cu^2+ in the presence of antioxidants (0-45 μM) at 37° C. for 1 h and subjected to agarose electrophoresis. […] In FIG. 32, lane 1 is native DNA, and lanes 2-10 are Cu^2+ oxidized DNA with 0, 45, 23, 11, 5, 3, 1.5, 0.7, and 0.35 μM antioxidant, respectively. […] However, it should be noted that physiological concentrations of copper are less than 10-20 μM in plasma and approximately […] for the cation in cells.

[2] = ABTS radical cation decolorization assay; assay type: biochemical; details: for pIC50: final concentration in the cuvet, read-out: concentration at which 50% inhibition of ABTS•+ was observed; for Slope of % decrease in absorbance at 6 min versus antioxidant concentration: linear regression, concentration in μM; for TEAC: slope divided by that of Trolox, % decrease in A734 at 6 min, ethanol
Description: We have tested AO activity of G1 (13) using ABTS as a radical source using a previously reported spectroscopic assay. The AO activity of the G1 (13) was compared to those of syringaldehyde, gallic acid, and vitamin C. If the phenolic OH group is the radical scavenging site, the expected AO activity of the G1 (13) should be 4 fold higher than that of syringaldehyde and 1.3 fold higher than that of gallic acid (which has three phenolic OH groups).
ABTS radical cation decolorization assay was used as previously described (Ozgen, et al. J. Agric. Food Chem. 2006, 54, 1151-1157, incorporated herein by reference in its entirety). Like the DPPH assay, this was also a decolorization assay and measured absorbance decrease at 734 nm as the ABTS radical (ABTS•+) is quenched by the antioxidant. The solvent used for the assay was ethanol. ABTS reagent was added to 1.0 mL solvent in a cuvet to bring the absorbance to 0.7. A 10 μL sample of antioxidant was then added, mixed, and the absorbance monitored at 734 nm for 6 min. Antioxidant concentrations were 14.4 μM Trolox, 11.4 μM ascorbic acid, 15.4 μM syringaldehyde, and 3 μM compound 1. The % decrease in absorbance at 6 min was plotted against antioxidant concentrations. The gradient of the line obtained by linear regression for a given antioxidant was divided by that obtained for Trolox to yield Trolox equivalent antioxidant (TEAC) values. All samples were made in ethanol and run in triplicates and at room temperature.

[3] = FRAP assay (reduction of Fe(III) to Fe(II)); assay type: biochemical; design: Slope of ΔA593 versus concentration: unit not given here; details: for Slope of ΔA593 versus concentration: 37° C.
Experimental: The FRAP assay was performed as previously described (Pulido, et al. J. Agric. Food Chem. 2000, 48, 3396-3402, incorporated herein by reference in its entirety). In the FRAP assay, ferric was reduced by the antioxidant to ferrous via electron transfer (Benzie et al., Anal. Biochem. 1996, 239, 70-76, incorporated herein by reference in its entirety). This assay measured the redox potential of an antioxidant which is used as an estimate of antioxidant efficiency and expressed as a FRAP value. […] The compound 1 as well as the other antioxidants was dissolved in methanol. […] Reaction kinetics of the compound 1 and other antioxidants were obtained by plotting the change in slopes at various times and are shown in FIG. 18. […] This time-dependent increase in absorbance was previously reported (Pulido, et al. J. Agric. Food Chem. 2000, 48, 3396-3402, incorporated herein by reference in its entirety) and was especially significant with polyphenolic compounds. […] However, the FRAP value increased with time, reaching 2.5 in 60 min. […] J. Agric. Food Chem. 2000, 48, 3396-3402, incorporated herein by reference in its entirety). […] EC1 values, and therefore ferric reducing ability, were lower at longer reaction times as expected from the kinetic behavior of the antioxidants (Pulido, et al. J. Agric. Food Chem. 2000, 48, 3396-3402, incorporated herein by reference in its entirety).

For `Cc1c(C)c2c(c(C)c1O)CCC(C)(C(=O)O)O2` (stereo not shown) [Trolox, 6-hydroxy-2,5,7,8-tetramethylchroman-2-carboxylic acid], the “protection of linoleic acid from oxidation” value [1] was “more effective than compounds 2 and 3 (and quercetin) at lower concentrations”, the “pro-oxidant effect on DNA at the concentrations tested” value (pBR 322 DNA with Cu2+; 0.35-45 μM antioxidant) was “strong pro-oxidant effect equivalent to quercetin” and the “pro-oxidant DNA damage” value (pBR 322 DNA with Cu2+; 11-45 μM antioxidant) was “DNA damage was clearly observed”. For the same compound, the “Antioxidant Capacity Relative to Trolox, ABTS” value [2] was 1, the “time to reach a plateau of ABTS•+ absorbance suppression” value ([2]; 14.4 μM Trolox, 11.4 μM ascorbic acid) was “one” and the pIC50 [2] was about 5.00. The “Slope of % decrease in absorbance at 6 min versus antioxidant concentration” value [2] was 4, the TEAC [2] was 1 and the “Antioxidant Capacity Relative to Trolox, FRAP 5 min” value ([3]; 5 min) was 1. The “EC1 (concentration with ferric-TPTZ reducing ability equivalent to 1 mM FeSO4.7H2O)” value ([3]; 5 min) was 450 µM, the “FRAP value relative to Fe(II)” value ([3]; 5 min) was 2.2 and the “FRAP value relative to Fe(II)” value ([3]; 15 min) was 2.2. For the same compound, the “FRAP value relative to Fe(II)” value ([3]; 30 min) was 2.2, the “Antioxidant Capacity Relative to Trolox, FRAP 60 min” value ([3]; 60 min) was 1 and the “EC1 (concentration with ferric-TPTZ reducing ability equivalent to 1 mM FeSO4.7H2O)” value ([3]; 60 min) was 449 µM. For the same compound, the “FRAP value relative to Fe(II)” value ([3]; 60 min) was 2.2, the “Slope of ΔA593 versus concentration” value ([3]; Reaction time 5 min) was 0.0268 and the “Slope of ΔA593 versus concentration” value ([3]; Reaction time 15 min) was 0.0269. For the same compound, the “Slope of ΔA593 versus concentration” value ([3]; Reaction time 30 min) was 0.0269, the “Slope of ΔA593 versus concentration” value ([3]; Reaction time 60 min) was 0.0269 and the “FRAP value, did not change with time” value ([3]; testing period 60 min) was 2.2.
In the case of `COc1cc(CN(Cc2ccc(CN(Cc3cc(OC)c(O)c(OC)c3)Cc3cc(OC)c(O)c(OC)c3)cc2)Cc2cc(OC)c(O)c(OC)c2)cc(OC)c1O` [Compound 1], the “protection of linoleic acid from oxidation” value [1] was “most effective”, the “Antioxidant Capacity Relative to Trolox, ABTS” value [2] was 8.5 and the “AO activity higher than that of gallic acid” value ([2]; ABTS as radical source) was 3 fold. The “AO activity higher than that of syringaldehyde” value ([2]; ABTS as radical source) was 7 fold, the “AO activity higher than that of vitamin C” value ([2]; ABTS as radical source) was 7.6 fold and the “ABTS, times better than ascorbic acid” value ([2]; based on TEAC) was 9.4 times. The “ABTS, times better than syringaldehyde” value ([2]; based on TEAC) was 8.7 times, the pIC50 [2] was about 5.82 and the “Slope of % decrease in absorbance at 6 min versus antioxidant concentration” value [2] was 33.9. For the same compound, the TEAC [2] was 8.48, the “Antioxidant Capacity Relative to Trolox, FRAP 5 min” value ([3]; 5 min) was 6.1 and the “EC1 (concentration with ferric-TPTZ reducing ability equivalent to 1 mM FeSO4.7H2O)” value ([3]; 5 min) was 74 µM. For the same compound, the “FRAP value relative to Fe(II)” value ([3]; 5 min) was 13.5, the “FRAP, times better than ascorbic acid” value ([3]; 5 min) was 6.7 times and the “Antioxidant Capacity Relative to Trolox, FRAP 5 min” value ([3]; 5 min, listed as compound 1) was ~6 and 6.1. For the same compound, the “FRAP ratio to syringaldehyde” value ([3]; 5 min, listed as compound 1) was ~2.6 times and 2.7 times, the “FRAP value relative to Fe(II)” value ([3]; 15 min) was 14.6 and the “FRAP value relative to Fe(II)” value ([3]; 30 min) was 15.1. For the same compound, the “Antioxidant Capacity Relative to Trolox, FRAP 60 min” value ([3]; 60 min) was 7.2, the “EC1 (concentration with ferric-TPTZ reducing ability equivalent to 1 mM FeSO4.7H2O)” value ([3]; 60 min) was 63 µM and the “FRAP ratio to syringaldehyde” value ([3]; 60 min) was 1.7 times. For the same compound, the “FRAP value relative to Fe(II)” value ([3]; 60 min) was 15.8, the “FRAP, times better than ascorbic acid” value ([3]; 60 min) was 6.5 times and the “Antioxidant Capacity Relative to Trolox, FRAP 60 min” value ([3]; 60 min, listed as compound 1) was ~7 and 7.2. The “Slope of ΔA593 versus concentration” value ([3]; Reaction time 5 min) was 0.163, the “Slope of ΔA593 versus concentration” value ([3]; Reaction time 15 min) was 0.175 and the “Slope of ΔA593 versus concentration” value ([3]; Reaction time 30 min) was 0.182. The “Slope of ΔA593 versus concentration” value ([3]; Reaction time 60 min) was 0.190.
